In patent publication US10471111B2, “Lactobacillus and composition for preventing, improving, or treating degenerative brain diseases or cognitive function disorders” (University-Industry Cooperation Group of Kyung Hee …, priority 2015, dated 2019):

What was measured:
Assay type in all cases: in vivo, ICR male mice
[1] = tested on: mice induced to have memory impairment by scopolamine; test: Y-maze test, memory impairment by scopolamine
Description: Apparatus used in the Y-maze test consists of three arms with each being 42 cm in length, 3 cm in width and 12 cm in height. The three arms, made from black polyvinyl resin, were placed at an angle of 120 degrees.
(§1) The selected 13 types of lactic acid bacteria were each suspended in physiological saline at the concentration of 1×10^10 CFU/ ? , and then the suspension was administered to mice of the test animal (5-week-old ICR male mice from Raonbio), at the dosage of 0.1 ? (equivalent to 1×10^9 CFU of lactic acid bacteria) on a daily basis for three days. […]
An hour after the final administration of lactic acid bacteria or positive control drug, 1 mg/kg (body weight) of scopolamine (cholinergic blocking drug inducing cognitive ability disorder or memory impairment), dissolved in distilled water, was administered in the abdomen while the normal group was administered with physiological saline in the abdomen. half an hour after the administration of scopolamine, the mouse was carefully placed in one of the three arms, A, B, and C, in the Y-maze and allowed to freely move for eight minutes, and then the arm in which the mouse moved was recorded. In the experiment, the arm was recorded as a case in which the test animal moved only when the entire body including the tail was inside the arm, or when the mouse moved back in. […]

[2] = tested on: mice induced to have memory impairment by Proteus mirabilis K21; test: Y-maze test, memory impairment by Proteus mirabilis K21; details: Proteus mirabilis K21 1×10^9 CFU for five days, then lactic acid bacteria 1×10^9 CFU or donepezil 5 mg/kg daily for five days
Description: Proteus mirabilis K21 separated from the animal with damaged memory was administered to the mice to induce memory impairment (similar symptoms to […]), and Y-maze test was conducted to measure the improvement effect of lactic acid bacteria for cognitive ability.
In more detail, Proteus mirabilis K21 was administered to a mouse (5-week-old ICR male mice from Raonbio) that was fed for a week in the animal laboratory at the dosage of 1×10^9 CFU on a daily basis for five days to induce memory impairment. In the meantime, the normal group was administered with physiological saline instead of Proteus mirabilis K21. […]
An hour after the final administration of drug, the mouse was carefully placed in one of the three arms, A, B, and C, in the Y-maze and allowed to freely move for eight minutes, and then the arm in which the mouse moved was recorded. In the experiment, the arm was recorded as an arm in which the test animal moved only when the entire body including the tail was inside the arm, or when the mouse moved back in. […] The experimental result was calculated by the formula below (Sarter, M. et al., Psychopharmacology., 94, pp 491-495, 1998), as shown in Table 12 below. […]

[3] = tested on: mice induced to have memory impairment by scopolamine; test: Passive Avoidance test, memory impairment by scopolamine; details: scopolamine 1 mg/kg; lactic acid bacteria 1×10^9 CFU or donepezil 5 mg/kg daily for three days; measured up to 300 seconds
Description: In the Passive Avoidance test apparatus, which is divided into the first and second space, there is a guillotine-like door that connects the two spaces. By using lightings, the first space was kept bright while the second space was kept dark. On the floor of the second space that was kept dark was placed an electric grid that flowed 0.5 mA of electric shock for three seconds in the case of the animal moving to the dark space.
as §1
On the third day after administering the drug, an hour after administering lactic acid bacteria or positive control drug, 1 mg/kg (body weight) of scopolamine (cholinergic blocking drug inducing cognitive ability disorder or memory damage), dissolved in distilled water, was administered in the abdomen while the normal group was administered with physiological saline in the abdomen. […] With 10 seconds of observation, the guillotine-like door is opened, the time that the mice in each experimental group took to have all of their four feet inside the second space was measured up to 300 seconds, whose result is shown in Table 8. […]

Question: What does the source list for `COc1cc2c(cc1OC)C(=O)C(CC1CCN(Cc3ccccc3)CC1)C2` (stereo not shown) [donepezil]?
Answer: Alternation behavior ([1]; Y-maze test, Table 11, scopolamine, red bean suspension or ferment 0.2 g per mouse, CJLJ103 2 × 10^8 CFU per mouse daily): 63.2%; Alternation behavior ([1]; scopolamine 1 mg/kg, lactic acid bacteria 1×10^9 CFU or donepezil 5 mg/kg daily for three days): 65.8%; Alternation behavior [2]: 58.6%; Latency time [3]: 66.4 s
